Source: US20130184257A1, “PIPERIDINYL-SUBSTITUTED LACTAMS AS GPR119 MODULATORS” (priority 2010, published 2013)

Test system: modified version of the GPR119 receptor (94% identity to human receptor) stably expressed in HEK-293 cells
Experiment: cAMP Production Assay (LANCE cAMP kit, TR-FRET)
Type: cell-based
Conditions: for cAMP production in HEK-293 cells: HEK-293 cells expressing modified GPR119, test compounds 0.2 nM to 10 μM, one-hour incubation at ambient temperature; for Fold over baseline: increase in cAMP relative to basal levels, 1.5-fold or greater = agonist activity
Procedure: The assay utilized HEK-293 cells that stably express a modified version of the GPR119 receptor (94% identity to human receptor), under the control of a CMV promoter containing a tet-on element for tetracycline-inducible expression. GPR119 agonist-induced cyclic AMP (cAMP) production was measured in this cell line using the LANCE cAMP kit (Perkin Elmer, Waltham, Mass.). To generate a working stock of cells for the assay, cells were treated overnight with 1 μg/mL doxycycline at 37° C. in the presence of 5% CO2 to induce receptor expression. Cells were then harvested by enzymatic dissociation with 0.05% trypsin, resuspended in freezing medium (DMEM growth medium with 10% each of fetal bovine serum and DMSO), aliquoted and frozen at −80° C. On the day of the assay, frozen cells were thawed, washed 1× in PBS and resuspended in Hank's buffered salt solution (HBSS) containing 5 mM HEPES, 0.1% BSA and Alexa Fluor 647-conjugated anti-cAMP antibody (diluted 1:100). The cell suspension was then transferred to a Proxiplate Plus white 384-well assay plate (Perkin-Elmer) at 2000 cells/well. Test compounds at final concentrations ranging from 0.2 nM to 10 μM were added to the assay plate, followed by a one-hour incubation at ambient temperature (volume=10 μL/well). DMSO concentration was held constant at 0.5%. After incubation with test compounds, 10 μL of a detergent buffer containing a biotinylated cAMP/Europium-conjugated streptavidin complex (Europium-labeled cAMP tracer) were added to each well on the assay plate, followed by a 2-hour incubation at ambient temperature. During this incubation cAMP released from lysed cells competes with the Europium-labeled cAMP tracer for binding to the Alexa Fluor 647-conjugated antibody. […] Cellular cAMP levels were then determined by interpolation of raw signal data using a cAMP standard curve. Compounds were determined to have agonist activity if they stimulated a 1.5-fold or greater increase in cAMP relative to basal levels.

Compound	cAMP production in HEK-293 cells [nmol]	Fold over baseline
CS(=O)(=O)c1ccc(N[C@H]2CCN(C3CCN(c4noc(-c5ccccn5)n4)CC3)C2=O)c(F)c1 [Example 38, (S)-3-(2-fluoro-4-(methylsulfonyl)-phenylamino)-1-(1-(5-(pyridin-2-yl)-1,2,4-oxadiazol-3-yl)piperidin-4-yl)pyrrolidin-2-one]	9.0	3.5
CS(=O)(=O)c1ccc(N[C@H]2CCN(C3CCN(c4noc(C(F)F)n4)CC3)C2=O)c(F)c1 [Example 21, (S)-1-(1-(5-(difluoromethyl)-1,2,4-oxadiazol-3-yl)piperidin-4-yl)-3-(2-fluoro-4-(methylsulfonyl)phenylamino)pyrrolidin-2-one]	21.0	2.8
CS(=O)(=O)c1ccc(N[C@H]2CCN(C3CCN(c4noc(C(F)F)n4)CC3)C2=O)cn1 [Example 58]	15.8	2.6
CC(F)(F)c1noc(N2CCC(N3CCC[C@H](Nc4cc(F)c(S(C)(=O)=O)cc4F)C3=O)CC2)n1 [Example 61, (S)-3-((2,5-difluoro-4-(methylsulfonyl)phenyl)amino)-1′-(3-(1,1-difluoroethyl)-1,2,4-oxadiazol-5-yl)-[1,4′-bipiperidin]-2-one]	13.6	2.2
CC(C)(C)c1noc(N2CCC(N3CC[C@H](Oc4ccc(S(C)(=O)=O)cc4F)C3=O)CC2)n1 [Example 5, (S)-1-(1-(3-tert-butyl-1,2,4-oxadiazol-5-yl)piperidin-4-yl)-3-(2-fluoro-4-(methylsulfonyl)phenoxy)pyrrolidin-2-one]	22.7	4.8
CS(=O)(=O)c1cc(F)c(O[C@H]2CCN(C3CCN(c4nc(C(F)(F)F)no4)CC3)C2=O)cc1F [Example 11, (S)-1-(1-(3-trifluoromethyl-1,2,4-oxadiazol-5-yl)piperidin-4-yl)-3-(2,5-difluoro-4-(methylsulfonyl)phenoxy)pyrrolidin-2-one]	13.5	4.0
CS(=O)(=O)c1ccc(N[C@H]2CCN(C3CCN(c4noc(C(Cl)(Cl)Cl)n4)CC3)C2=O)c(F)c1 [Example 13, (S)-3-(2-fluoro-4-(methylsulfonyl)phenylamino)-1-(1-(5-(trichloromethyl)-1,2,4-oxadiazol-3-yl)piperidin-4-yl)pyrrolidin-2-one]	17.3	3.0
CS(=O)(=O)c1ccc(N[C@H]2CCN(C3CCN(c4noc(N5CCCC5)n4)CC3)C2=O)c(F)c1 [Example 51]	16.3	2.9
CS(=O)(=O)c1ccc(N[C@H]2CCN(C3CCN(c4noc(C5CCCC5)n4)CC3)C2=O)c(F)c1 [Example 43, (S)-1-(1-(5-cyclopentyl-1,2,4-oxadiazol-3-yl)piperidin-4-yl)-3-(2-fluoro-4-(methylsulfonyl)-phenylamino)-pyrrolidin-2-one]	14.7	3.6
CS(=O)(=O)c1cc(F)c(N[C@H]2CCCCN(C3CCN(c4noc(C(F)(F)F)n4)CC3)C2=O)cc1F [Example 53, (S)-3-(2,5-difluoro-4-(methylsulfonyl)phenylamino)-1-(1-(5-(trifluoromethyl)-1,2,4-oxadiazol-3-yl)piperidin-4-yl)azepan-2-one]	11.8	4.7
CS(=O)(=O)c1ccc(N[C@H]2CCN(C3CCN(c4noc(C(F)(F)F)n4)CC3)C2=O)c(F)c1 [Example 16, (S)-3-(2-fluoro-4-(methylsulfonyl)phenylamino)-1-(1-(5-(trifluoromethyl)-1,2,4-oxadiazol-3-yl)piperidin-4-yl)pyrrolidin-2-one]	17.0	4.3
CC(C)c1nc(N2CCC(N3CC[C@H](Oc4ccc(S(C)(=O)=O)cc4F)C3=O)CC2)no1 [Example 18, (S)-3-(2-fluoro-4-(methylsulfonyl)phenoxy)-1-(1-(5-isopropyl-1,2,4-oxadiazol-3-yl)piperidin-4-yl)pyrrolidin-2-one]	19.4	3.7
CS(=O)(=O)c1cc(F)c(O[C@H]2CCN(C3CCN(c4noc(C(F)(F)F)n4)CC3)C2=O)c(F)c1 [Example 28, (S)-3-(2,6-difluoro-4-(methylsulfonyl)phenoxy)-1-(1-(5-(trifluoromethyl)-1,2,4-oxadiazol-3-yl)piperidin-4-yl)pyrrolidin-2-one]	101.5	5.0
CCC(F)(F)c1nc(N2CCC(N3CC[C@H](Nc4ccc(S(C)(=O)=O)cc4F)C3=O)CC2)no1 [Example 47, (S)-1-(1-(5-(1,1-difluoropropyl)-1,2,4-oxadiazol-3-yl)piperidin-4-yl)-3-(2-fluoro-4-(methylsulfonyl)-phenylamino)pyrrolidin-2-one]	17.2	2.5
CC(F)(F)c1nc(N2CCC(N3CC[C@H](Nc4cc(F)c(S(C)(=O)=O)cc4F)C3=O)CC2)no1 [Example 64, (S)-3-((2,5-difluoro-4-(methylsulfonyl)phenyl)amino)-1-(1-(5-(1,1-difluoroethyl)-1,2,4-oxadiazol-3-yl)piperidin-4-yl)pyrrolidin-2-one]	15.8	3.3
CC(C)c1nc(N2CCC(N3CC[C@H](Nc4ccc(S(C)(=O)=O)cc4F)C3=O)CC2)no1 [Example 15, (S)-3-(2-fluoro-4-(methylsulfonyl)phenylamino)-1-(1-(5-isopropyl-1,2,4-oxadiazol-3-yl)piperidin-4-yl)pyrrolidin-2-one]	20.8	3.8
CS(=O)(=O)c1ccc(O[C@H]2CCN(C3CCN(c4noc(C(F)(F)F)n4)CC3)C2=O)c(F)c1 [Example 24, (S)-3-(2-fluoro-4-(methylsulfonyl)phenoxy)-1-(1-(5-(trifluoromethyl)-1,2,4-oxadiazol-3-yl)piperidin-4-yl)pyrrolidin-2-one]	81.6	4.4
CC(C)c1noc(N2CCC(N3CC[C@H](Nc4ccc(S(C)(=O)=O)cc4F)C3=O)CC2)n1 [Example 8, (S)-3-(2-fluoro-4-(methylsulfonyl)phenylamino)-1-(1-(3-isopropyl-1,2,4-oxadiazol-5-yl)piperidin-4-yl)pyrrolidin-2-one]	25.0	4.9
CS(=O)(=O)c1cc(F)c(N[C@H]2CCCN(C3CCN(c4noc(C(F)F)n4)CC3)C2=O)cc1F [Example 33, (S)-3-(2,5-difluoro-4-(methylsulfonyl)phenylamino)-1′-(5-(difluoromethyl)-1,2,4-oxadiazol-3-yl)-1,4′-bipiperidin-2-one]	10.1	2.5
CS(=O)(=O)c1cc(F)c(N[C@H]2CCCN(C3CCN(c4noc(C(F)F)n4)CC3)C2=O)c(F)c1 [Example 32, (S)-3-(2,6-difluoro-4-(methylsulfonyl)phenylamino)-1′-(5-(difluoromethyl)-1,2,4-oxadiazol-3-yl)-1,4′-bipiperidin-2-one]	7.9	2.4
CS(=O)(=O)c1cc(F)c(O[C@@H]2CCCN(C3CCN(c4noc(C(F)(F)F)n4)CC3)C2=O)cc1F [Example 67, (R)-3-(2,5-difluoro-4-(methylsulfonyl)phenoxy)-1′-(5-(trifluoromethyl)-1,2,4-oxadiazol-3-yl)-[1,4′-bipiperidin]-2-one]	43.6	3.6
CS(=O)(=O)c1cc(F)c(N[C@H]2CCCN(C3CCN(c4nc(C(F)(F)F)no4)CC3)C2=O)cc1F [Example 9, (S)-3-(2,5-difluoro-4-(methylsulfonyl)phenylamino)-1′-(3-trifluoromethyl-1,2,4-oxadiazol-5-yl)-1,4′-bipiperidin-2-one]	11.4	3.5
CC(F)(F)c1nc(N2CCC(N3CC[C@H](Nc4c(F)cc(S(C)(=O)=O)cc4F)C3=O)CC2)no1 [Example 65, (S)-3-((2,6-difluoro-4-(methylsulfonyl)phenyl)amino)-1-(1-(5-(1,1-difluoroethyl)-1,2,4-oxadiazol-3-yl)piperidin-4-yl)pyrrolidin-2-one]	16.1	2.6
CC(C)c1nc(N2CCC(N3CCC[C@H](Nc4ccc(S(C)(=O)=O)cc4F)C3=O)CC2)no1 [Example 14, (S)-3-(2-fluoro-4-(methylsulfonyl)phenylamino)-1′-(5-isopropyl-1,2,4-oxadiazol-3-yl)-1,4′-bipiperidin-2-one]	18.9	3.5
